Reference: BigSolDB 2.1

In the case of O=P1(C(Nc2ccccc2)c2ccccc2)OCC2(CO1)COP(=O)(C(Nc1ccccc1)c1ccccc1)OC2 (centres undefined), the solubility (mole fraction) (in 1,2-dichloroethane, 283.35 K) is reported as 0.000119, the solubility (mole fraction) (in 1,2-dichloroethane, 288.25 K) is reported as 0.000127 and the solubility (mole fraction) (in 1,2-dichloroethane, 293.3 K) is reported as 0.00014. The solubility (mole fraction) (in 1,2-dichloroethane, 297.95 K) was 0.000153, the solubility (mole fraction) (in 1,2-dichloroethane, 303.45 K) was 0.000163 and the solubility (mole fraction) (in 1,2-dichloroethane, 308.35 K) was 0.000176. The solubility (mole fraction) (in 1,2-dichloroethane, 313.45 K) was 0.00019, the solubility (mole fraction) (in 1,2-dichloroethane, 318.25 K) was 0.000208 and the solubility (mole fraction) (in 1,2-dichloroethane, 323.45 K) was 0.000219. The solubility (mole fraction) (in 1,2-dichloroethane, 327.95 K) was 0.000231, the solubility (mole fraction) (in 1,2-dichloroethane, 333.35 K) was 0.000249 and the solubility (mole fraction) (in 1,2-dichloroethane, 338.15 K) was 0.000271. For the same compound, the solubility (mole fraction) (in 1,4-dioxane, 283.15 K) was 7.3e-05, the solubility (mole fraction) (in 1,4-dioxane, 288.35 K) was 8.4e-05 and the solubility (mole fraction) (in 1,4-dioxane, 293.25 K) was 0.0001. The solubility (mole fraction) (in 1,4-dioxane, 298.35 K) was 0.000121, the solubility (mole fraction) (in 1,4-dioxane, 303.15 K) was 0.000146 and the solubility (mole fraction) (in 1,4-dioxane, 308.25 K) was 0.000176. The solubility (mole fraction) (in 1,4-dioxane, 313.45 K) was 0.000202, the solubility (mole fraction) (in 1,4-dioxane, 318.65 K) was 0.000248 and the solubility (mole fraction) (in 1,4-dioxane, 323.55 K) was 0.000286. For the same compound, the solubility (mole fraction) (in 1,4-dioxane, 328.25 K) was 0.000332, the solubility (mole fraction) (in 1,4-dioxane, 333.2 K) was 0.000417 and the solubility (mole fraction) (in 1,4-dioxane, 338.3 K) was 0.000479. It also gave a solubility (mole fraction) (in THF, 288.45 K) of 0.00381, a solubility (mole fraction) (in THF, 293.25 K) of 0.00428 and a solubility (mole fraction) (in THF, 298.15 K) of 0.00481. The solubility (mole fraction) (in THF, 303.15 K) was 0.0053, the solubility (mole fraction) (in THF, 308.65 K) was 0.00588 and the solubility (mole fraction) (in THF, 313.45 K) was 0.00645. For the same compound, the solubility (mole fraction) (in THF, 318.45 K) was 0.00711, the solubility (mole fraction) (in THF, 323.55 K) was 0.00788 and the solubility (mole fraction) (in THF, 328.35 K) was 0.00862. It also gave a solubility (mole fraction) (in THF, 333.25 K) of 0.01, a solubility (mole fraction) (in THF, 338.15 K) of 0.0108 and a solubility (mole fraction) (in acetic acid, 298.25 K) of 0.000115. The solubility (mole fraction) (in acetic acid, 303.65 K) was 0.000156, the solubility (mole fraction) (in acetic acid, 308.15 K) was 0.000194 and the solubility (mole fraction) (in acetic acid, 313.25 K) was 0.000233. The solubility (mole fraction) (in acetic acid, 318.25 K) was 0.000288, the solubility (mole fraction) (in acetic acid, 323.15 K) was 0.000326 and the solubility (mole fraction) (in acetic acid, 328.25 K) was 0.000348. The solubility (mole fraction) (in acetic acid, 333.45 K) was 0.000406, the solubility (mole fraction) (in acetic acid, 338.15 K) was 0.000444 and the solubility (mole fraction) (in acetone, 283.35 K) was 9.1e-05. The solubility (mole fraction) (in acetone, 288.25 K) was 0.000101, the solubility (mole fraction) (in acetone, 293.25 K) was 0.00011 and the solubility (mole fraction) (in acetone, 298.3 K) was 0.000123. For the same compound, the solubility (mole fraction) (in acetone, 303.35 K) was 0.000136, the solubility (mole fraction) (in acetone, 308.45 K) was 0.000151 and the solubility (mole fraction) (in acetone, 313.25 K) was 0.000164. The solubility (mole fraction) (in acetone, 318.55 K) was 0.000183, the solubility (mole fraction) (in acetone, 323.25 K) was 0.000205 and the solubility (mole fraction) (in acetone, 328.35 K) was 0.000221. For the same compound, the solubility (mole fraction) (in acetonitrile, 288.3 K) was 3.6e-05, the solubility (mole fraction) (in acetonitrile, 293.2 K) was 4.5e-05 and the solubility (mole fraction) (in acetonitrile, 298.25 K) was 5.5e-05. It also gave a solubility (mole fraction) (in acetonitrile, 303.15 K) of 6.1e-05, a solubility (mole fraction) (in acetonitrile, 308.25 K) of 7.6e-05 and a solubility (mole fraction) (in acetonitrile, 313.2 K) of 8.7e-05. For the same compound, the solubility (mole fraction) (in acetonitrile, 317.95 K) was 9.8e-05, the solubility (mole fraction) (in acetonitrile, 323.55 K) was 0.000121 and the solubility (mole fraction) (in acetonitrile, 328.45 K) was 0.000146. It also gave a solubility (mole fraction) (in acetonitrile, 333.15 K) of 0.000169, a solubility (mole fraction) (in acetonitrile, 338.25 K) of 0.000194 and a solubility (mole fraction) (in benzene, 283.25 K) of 3.1e-05. For the same compound, the solubility (mole fraction) (in benzene, 288.35 K) was 4.3e-05, the solubility (mole fraction) (in benzene, 293.15 K) was 6.4e-05 and the solubility (mole fraction) (in benzene, 298.45 K) was 8.2e-05. The solubility (mole fraction) (in benzene, 303.35 K) was 9.8e-05, the solubility (mole fraction) (in benzene, 308.45 K) was 0.000123 and the solubility (mole fraction) (in benzene, 313.25 K) was 0.000145. For the same compound, the solubility (mole fraction) (in benzene, 318.3 K) was 0.000178, the solubility (mole fraction) (in benzene, 323.35 K) was 0.000199 and the solubility (mole fraction) (in benzene, 328.25 K) was 0.000218. The solubility (mole fraction) (in benzene, 333.15 K) was 0.000239, the solubility (mole fraction) (in benzene, 338.35 K) was 0.000266 and the solubility (mole fraction) (in dichloromethane, 283.25 K) was 0.000164. For the same compound, the solubility (mole fraction) (in dichloromethane, 288.3 K) was 0.000202, the solubility (mole fraction) (in dichloromethane, 293.35 K) was 0.000268 and the solubility (mole fraction) (in dichloromethane, 298.25 K) was 0.000308. It also gave a solubility (mole fraction) (in dichloromethane, 303.35 K) of 0.000342, a solubility (mole fraction) (in dichloromethane, 308.15 K) of 0.000388 and a solubility (mole fraction) (in dichloromethane, 313.25 K) of 0.000423. It also gave a solubility (mole fraction) (in diethyl ether, 283.35 K) of 5.5e-05, a solubility (mole fraction) (in diethyl ether, 288.15 K) of 8.6e-05 and a solubility (mole fraction) (in diethyl ether, 292.95 K) of 0.000126. It also gave a solubility (mole fraction) (in diethyl ether, 298.65 K) of 0.000213, a solubility (mole fraction) (in diethyl ether, 303.25 K) of 0.000299 and a solubility (mole fraction) (in ethanol, 288.25 K) of 4e-05. It also gave a solubility (mole fraction) (in ethanol, 293.15 K) of 5e-05, a solubility (mole fraction) (in ethanol, 303.25 K) of 7.4e-05 and a solubility (mole fraction) (in ethanol, 308.55 K) of 9e-05. The solubility (mole fraction) (in ethanol, 313.45 K) was 0.000113, the solubility (mole fraction) (in ethanol, 317.85 K) was 0.000141 and the solubility (mole fraction) (in ethanol, 323.25 K) was 0.00017. For the same compound, the solubility (mole fraction) (in ethanol, 328.25 K) was 0.0002, the solubility (mole fraction) (in ethanol, 333.25 K) was 0.000243 and the solubility (mole fraction) (in ethanol, 338.25 K) was 0.000285. For the same compound, the solubility (mole fraction) (in ethanol, 343.15 K) was 0.00036, the solubility (mole fraction) (in isopropanol, 283.45 K) was 0.000107 and the solubility (mole fraction) (in isopropanol, 287.95 K) was 0.000131. It also gave a solubility (mole fraction) (in isopropanol, 293.45 K) of 0.000156, a solubility (mole fraction) (in isopropanol, 298.15 K) of 0.000176 and a solubility (mole fraction) (in isopropanol, 303.25 K) of 0.000209. The solubility (mole fraction) (in isopropanol, 308.15 K) was 0.000234, the solubility (mole fraction) (in isopropanol, 313.25 K) was 0.000256 and the solubility (mole fraction) (in isopropanol, 318.15 K) was 0.000289. It also gave a solubility (mole fraction) (in isopropanol, 323.65 K) of 0.000312, a solubility (mole fraction) (in isopropanol, 328.55 K) of 0.000348 and a solubility (mole fraction) (in isopropanol, 333.3 K) of 0.000393. For the same compound, the solubility (mole fraction) (in isopropanol, 338.5 K) was 0.000414, the solubility (mole fraction) (in toluene, 283.15 K) was 0.000765 and the solubility (mole fraction) (in toluene, 288.25 K) was 0.00117. For the same compound, the solubility (mole fraction) (in toluene, 293.25 K) was 0.0015, the solubility (mole fraction) (in toluene, 298.45 K) was 0.00199 and the solubility (mole fraction) (in toluene, 303.15 K) was 0.00238. For the same compound, the solubility (mole fraction) (in toluene, 308.15 K) was 0.00287, the solubility (mole fraction) (in toluene, 313.45 K) was 0.00344 and the solubility (mole fraction) (in toluene, 318.65 K) was 0.00388. It also gave a solubility (mole fraction) (in toluene, 323.25 K) of 0.00449, a solubility (mole fraction) (in toluene, 328.25 K) of 0.00494 and a solubility (mole fraction) (in toluene, 333.25 K) of 0.00542. It also gave a solubility (mole fraction) (in toluene, 338.25 K) of 0.00614.
